Consider three compounds from patent US20230414657A1, “Novel compositions for neutralizing toxic effects of hydrogen peroxide in living cells or tissues” (Dzala LLC, priority 2020, published 2023).

Where two headings read alike, the source gives them in different places.

Data set [1] deals with C. elegans. It is filed as in vivo. The procedure:
Mitochondrial staining was performed as described previously^3,4. Briefly, L1 worms were grown on plate or in liquid culture for 2-3 days at 15° C. […] Next, the excess dye was washed off with M9 buffer and worms were incubated in 100 μl M9 for 30 min to eliminate the excess dye in the gut. Finally, worms were paralyzed with 0.5 mM Levamizol (Sigma-Aldrich), placed on slides covered with a thin layer of 2% agarose on top of which the coverslip (22×22 mm, Menzel-Glaser no. 1) was fixed using nail polish. We used a Zeiss LSM 700 inverted laser scanning confocal microscope and a Zeiss LCI Plan-Neofluar 63×/1.3 ImmCorr DIC M27 objective to image mitochondria (Zeiss, Germany). MitoTracker Red CMXRos was excited at 555 nm and the emission above 560 nm was acquired by the second PMT. Optical sections at 0.1×0.1×0.5 μm^3 x-y-z resolution were collected in […]. Final images were adjusted for intensity and merged in Fiji. No non-linear adjustments were made.

Data set [2] has as its system C. elegans. The data set is described as follows: Oxygen consumption rate (OCR), Seahorse XFe96. The format is in vivo. The procedure:
Oxygen consumption of worms was measured with a Seahorse XFe96 system (Seahorse Bioscience, North Billerica, MA), as previously described^4. L3 larvae of the different strains were grown on plates or in liquid culture and supplemented for 2-4 days as described for each experiment. After removing bacteria and debris, approximately 100 worms were pipetted into each well of a 96-well Seahorse XF^e assay plate and OCR was measured until it stabilized. Then, 3 subsequent measurements were made at 6.5-min intervals. Finally, the exact number of worms in each well was counted and used for normalization. A small number of abnormal readings were also filtered out at this stage. On average, 7-8 wells (technical replicates) were used for each condition. Normalized OCR values were averaged for the last 3 measurements for each strain and condition. Four biological replicates were analyzed for each condition.

For data set [3], the system named is C. elegans. Put plainly: Growth rate / worm size. The format is in vivo. The conditions noted are these: for Growth: 100 mM H2O2 plus supplement (10 mM GA, 100 μM glycine or 500 μM L-serine). As to the method:
Synchronized L1 worms were incubated at 15° C. on plates or in liquid culture and exposed to different conditions as indicated. Single worms were selected randomly from the plates or aliquots were taken from the liquid cultures and added to NGM plates for immediate visualization. 25 worms per treatment were measured at 24-48 hr intervals and all growth curves were done four times.

For data set [4], the system named is C. elegans. Put plainly: Quantification of glutathione (GSH/GSSG-Glo). The conditions noted are these: for GSH-to-GSSG ratio: plus supplement; for GSH/GSSG ratio: H2O2-treated worms plus 100 μM glycine or 500 μM L-serine. It is filed as in vivo. As to the method: Sample preparation was performed as described previously with some modifications^6. From each condition 10,000 synchronized animals were harvested and washed 3 times with sterile water. […] To thoroughly lyse the worms, 5 cycles of freezing and thawing were performed in a water bath at 37° C., followed by a 1-min sonication. The samples were then centrifuged and the supernatant tested for protein estimation and GSH quantification. Total GSH, GSSG, and GSH/GSSG ratios were quantified using the GSH/GSSG-Glo assay kit (Promega) following the instructions of the manufacturer. Briefly, each sample was tested in triplicate in 96-well culture plates with total glutathione or GSSG lysis reagent, for total glutathione or GSSG measurement, respectively. The GSH probe, luciferin-NT, was converted to luciferin, which is coupled to a firefly luciferase. The plates were then read in an […] plate reader (Perkin Elmer, United States). The GSSG value was subtracted from the total glutathione to calculate GSH levels and GSH/GSSG ratio. Four biological replicates were analyzed for each condition.

Data set [5] has as its system C. elegans. Put plainly: NADPH and NADP+ quantification by LC-MS. It is filed as in vivo. As to conditions: 100 mM H2O2 plus 10 mM glycolate, 100 μM glycine or 500 μM L-serine, 3 days.
Procedure: To measure NADP^+ and NADPH from C. elegans, 10000-15000 L1 worms were exposed to each condition in duplicates for 3 days and then washed four times with H2O. […] 25 µM solutions of each nucleotide were treated in parallel as standards. Homogenization for 15 min at 4° C. and 300 g was carried out in a TissueLyser II (Qiagen) after adding ⅓ volume of 0.5 mm zirconium beads. The resulting mixture was centrifuged at 13,000 g and the supernatant transferred to a new tube.
LC-MS/MS analysis of the samples was performed on a high-performance liquid chromatography (HPLC) system (1200 Agilent) coupled online to G2-S QTOF (Waters). For normal phase chromatography Bridge Amide 3.5 ml (2.1×100 mm) column from Waters was used. The mobile phase composed of eluent A and eluent B (40% acetonitrile, 0.1 mM ammonium acetate and 0.01% NH40H) was applied with the following gradient program: Eluent B, from 0% to 100% within 18 min; 100% from 18 min to 21 min; 0% from 21 min to 26 min. The flow rate was set at 0.3 ml/min. The spray voltage was set at 3.0 kV and the source temperature was set at 120° C. Nitrogen was used as both cone gas (50 L/h) and desolvation gas (800 L/h), and argon as the collision gas. MS^E mode was used with Bridge Amide 3.5 µl (2.1×100 mm) column in ESI negative ionization polarity for the detection of the nucleosides. Mass chromatograms and mass spectral data were acquired and processed by MassLynx software (Waters). Three and four biological replicates were analyzed for each condition of mel-32 RNAi and EV, respectively.
Data set [6] deals with C. elegans. Put plainly: Peroxide treatment of mutant, RNAi or unstressed worms: MMP, OCR and growth read together. The format is in vivo. The conditions noted are these: for Restoration of MMP, OCR or growth rate: H2O2, RNAi against mel-32 or gcst-1; for MMP, OCR, growth rate: H2O2, worms fed with empty vector RNAi bacteria; for Response to glycine and L-serine: ghpr-1 and ghpr-1, ldh-1, gox-1 mutants fed with mel-32 RNAi bacteria; for Deleterious effects of peroxide (MMP, respiration, size): ghpr-1 single and ghpr-1, gox-1, ldh-1 triple mutants, H2O2 plus glycine or L-serine. The source says:
C. elegans wild-type (N2) strain was received from Caenorhabditis Genetics Center, USA. Mutant strains were generated using the following primers. Idh-1: […] and […]; C31C9.2 (ghpr-1): […] and […]and F41E6.5 (gox-1): […]and[…]. […] Progeny of the rescued strains were genotyped for homozygous deletion with PCR primers for three generations. All mutants were outcrossed at least twice with the wild type to eliminate background mutations. Double and triple mutants were obtained by crossing single or double mutants and selecting the homozygous progeny by PCR.
For RNAi experiments in liquid, E. coli HT115 containing L4440 empty vector or the indicated cDNA fragment in L4440 was inoculated in 100 ml of LB containing 100 μg/ml ampicillin and incubated overnight at 37° C. in a shaking incubator at 250 rpm. To induce the production of dsRNA, a final concentration 0.8 mM IPTG was added to the collected bacterial pellet diluted 100-fold and incubated overnight at 25° C. in a shaking incubator at 250 rpm. Bacteria were then pelleted by centrifugation at 4000 rpm for 5 mins and resuspended in 200 μl S-medium containing 100 μg/ml ampicillin and 0.8 mM IPTG.
A population of synchronized L1 larvae was added to 30-ml glass tubes containing 2.5 ml of S-complete medium (liquid culture)^2 and NA22 or induced RNAi bacteria at an OD600 of 1.9. […] Worms were incubated at 15° C. and 150 rpm in a shaking incubator for 2-6 days, refreshing the medium every 2 days.
Mitochondrial staining was performed as described previously^3,4. Briefly, L1 worms were grown on plate or in liquid culture for 2-3 days at 15° C. Subsequently, they were pelleted in a 15-ml tube, rinsed twice with H2O and resuspended in 100 μl of M9. 5 μM MitoTracker Red CMXRos (Thermo Fisher Scientific, Germany) in DMSO was added to the worm suspension and incubated in this solution for 1.5 hr at room temperature in the dark. Next, the excess dye was washed off with M9 buffer and worms were incubated in 100 μl M9 for 30 min to eliminate the excess dye in the gut. Finally, worms were paralyzed with 0.5 mM Levamizol (Sigma-Aldrich), placed on slides covered with a thin layer of 2% agarose on top of which the coverslip (22×22 mm, Menzel-Glaser no. 1) was fixed using nail polish. We used a Zeiss LSM 700 inverted laser scanning confocal microscope and a Zeiss LCI Plan-Neofluar 63×/1.3 ImmCorr DIC M27 objective to image mitochondria (Zeiss, Germany). MitoTracker Red CMXRos was excited at 555 nm and the emission above 560 nm was acquired by the second PMT. Optical sections at 0.1×0.1×0.5 μm^3 x-y-z resolution were collected in a 4D hyperstack. Final images were adjusted for intensity and merged in Fiji. No non-linear adjustments were made.
Synchronized L1 worms were incubated at 15° C. on plates or in liquid culture and exposed to different conditions as indicated. Single worms were selected randomly from the plates or aliquots were taken from the liquid cultures and added to NGM plates for immediate visualization. 25 worms per treatment were measured at 24-48 hr intervals and all growth curves were done four times. Images were analyzed using FIJI (Image J) software, with length measurements derived by the sum-total of a number of segmented lines of known length, down the center of the worm as described previously^5.
Oxygen consumption of worms was measured with a Seahorse XFe96 system (Seahorse Bioscience, North Billerica, MA), as previously described^4. L3 larvae of the different strains were grown on plates or in liquid culture and supplemented for 2-4 days as described for each experiment. After removing bacteria and debris, approximately 100 worms were pipetted into each well of a 96-well Seahorse XF^e assay plate and OCR was measured until it stabilized. Then, 3 subsequent measurements were made at 6.5-min intervals. Finally, the exact number of worms in each well was counted and used for normalization.

Data set [7] concerns C. elegans. The data set is described as follows: H2O2 accumulation in worms (Amplex Red). It is filed as in vivo. As to conditions: peroxide + GA with glutathione synthesis blocked by BSO. The procedure:
Hydrogen peroxide was measured using the Amplex Red hydrogen peroxide/peroxidase assay kit (Molecular Probes, Eugene, OR), adapting the protocol to C. elegans. In the presence of hydrogen peroxide, Amplex Red is oxidized by horseradish peroxidase to form a red-fluorescent oxidation product whose fluorescence intensity can be measured.
To measure ROS production from C. elegans, 5000-7000 L1 worms were exposed to each condition for 2-3 days as indicated and then washed four times in 1 ml of the reaction buffer supplied with the kit. Volumes were adjusted to 700-1200 nematodes/50 μl and 50 μl was pipetted into a 96-well plate. A total of 50 μl of the Amplex Red reaction buffer was then added to the wells, and after 1 hr fluorescence was measured with a fluorescence microplate reader using excitation at 530±12.5 nm and fluorescence detection at 590±17.5 nm. Background fluorescence, determined for a no-H2O2 control reaction, was subtracted from each value. The significance of differences between conditions was determined by an unpaired fest. GraphPadPrism 8.0 was used for these calculations. Three biological replicates were carried out for each condition.

Data set [8] relates to C. elegans. As to conditions: in vivo, 3 days. The procedure: To quantify the uptake of glycolate, glycine and L-serine approximately 10000 synchronized L1 were incubated in liquid cultures as described above and grown for 3 days in the presence of […] of [1-^14C]-glycolate, [1-^14C]-glycine or L-[1-^14C]-serine. At this stage, worms were snap-frozen and stored at […]. Animals were lysed by freezing/thawing and extracted by using the Bligh and Dyer method^7. After phase separation, organic and aqueous fractions were recovered from the lower and upper phases, respectively. After drying and concentration, radioactivity was quantified using a scintillation counter and normalized for total number of worms.

[9] abbreviates: 100 mM H2O2 plus supplement (10 mM GA, 100 μM glycine or 500 μM L-serine).
Where [10] appears, read: H2O2-treated animals defective in mel-32 or gcst-1 (RNAi).
The mark [11] stands for this setting: H2O2-treated worms fed with empty vector.

In the case of `NCC(=O)O` [glycine], the “Mitochondrial membrane potential (MMP)” value in the data set on C. elegans [1] (setting [9]) is reported as “able to restore”. In addition, in the data set with C. elegans [2] (setting [9]), the “Respiration rate (OCR)” value is reported as “able to restore”. Moreover, the Growth result in the data set on C. elegans [3] was “able to restore”. In addition, in the data set with C. elegans [4] (setting [10]), the GSH-to-GSSG ratio entry was “strongly reduced”. Besides, in the data set on C. elegans [4] (setting [11]), the GSH-to-GSSG ratio result is recorded as “maintained close to control levels”. Moreover, the GSH/GSSG ratio entry in the data set on C. elegans [4] is on record as “able to restore”. In the data set on C. elegans [5], the “Ratio of NADPH to NADP+” value is listed as “fully rescued”. Further, in the data set with C. elegans [6], the “Restoration of MMP, OCR or growth rate” value is on record as “none of these three compounds were able to restore”; the “MMP, OCR, growth rate” value was “restored parameters”; the “Response to glycine and L-serine” value is “loss of response”; the “Deleterious effects of peroxide (MMP, respiration, size)” value was “overcome the deleterious effects of peroxide”.

Regarding `CCCCS(=N)(=O)CCC(N)C(=O)O` [BSO, L-buthioninesulfoximine, reference compound], the “Mitochondrial membrane potential (MMP)” value in the data set with C. elegans [1] (H2O2 + GA + BSO (0.5 mM)) is “prevented the GA-mediated improvement”. The “Respiration rate (OCR)” value in the data set on C. elegans [2] (H2O2 + GA + BSO (0.5 mM)) is “prevented the GA-mediated improvement”. The Growth rate entry in the data set with C. elegans [3] (H2O2 + GA + BSO (0.5 mM)) was “prevented the GA-mediated improvement”. Further, the Biosynthesis of glutathione entry in the data set on C. elegans [4] (0.5 mM BSO, FIG. 2) is given as “inhibited”. For the same compound, the GSH/GSSG per worm with C. elegans [4] (H2O2 + GA + BSO, control 107.5) came out at 36. The Total glutathione in the data set with C. elegans [4] (H2O2 + GA + inhibitor BSO) is given as 65 % of the control. For the same compound, the “Accumulation of H2O2” value in the data set on C. elegans [7] was “unchanged”.

For `N[C@@H](CO)C(=O)O` [L-serine], the “Mitochondrial membrane potential (MMP)” value in the data set on C. elegans [1] (setting [9]) is “able to restore”. The “Respiration rate (OCR)” value with C. elegans [2] (setting [9]) is on record as “able to restore”. Also, the Growth result in the data set with C. elegans [3] is “able to restore”. Further, in the data set with C. elegans [4] (setting [10]), the GSH-to-GSSG ratio entry was “strongly reduced”. In the data set with C. elegans [4] (setting [11]), the GSH-to-GSSG ratio result is “maintained close to control levels”. Besides, the GSH/GSSG ratio entry in the data set with C. elegans [4] is listed as “able to restore”. The “Ratio of NADPH to NADP+” value in the data set on C. elegans [5] is given as “much weaker, but still significant, increase”. Also, in the data set with C. elegans [8], the “Radioactivity in labelled animals (uptake) relative to [14C]GA” value is recorded as 3 times higher. In the data set with C. elegans [6], the “Restoration of MMP, OCR or growth rate” value was “none of these three compounds were able to restore”; the “MMP, OCR, growth rate” value is on record as “restored parameters”; the “Response to glycine and L-serine” value is recorded as “loss of response”; the “Deleterious effects of peroxide (MMP, respiration, size)” value was “overcome the deleterious effects of peroxide”.
